Data: patent US4677113A, “Di-t-butylphenols substituted by a thenoyl group” (Riker Laboratories, Inc., priority 1986, dated 1987)
Where two headings read alike, the source gives them in different places.

Tests used:
[1] = test system: bronchoconstriction in sensitized guinea pigs; assay: antigen-induced bronchoconstriction in sensitized guinea pigs (frequency of notching); format: in vivo, guinea pig; conditions: Cavia porcellus, male Hartley guinea pigs pretreated with antihistamine, read-out: ED40, inhibition of bronchoconstriction
Procedure: Preferably, bronchoconstriction in sensitized guinea pigs is measured upon antigen challenge. This test is described in broad terms by Piechuta, et al., Immunology, 38, 385 (1979) and more specifically by Hammerbeck and Swingle, Int. Archs. Allergy Appl. Immun. 74, 84-90 (1984), both references being incorporated herein by reference. It was used in a modified form as follows: Male Hartley guinea pigs (250-600 g) which were pretreated with an antihistamine, e.g., chlorpheniramine and then dosed intraperitoneally with a compound of the invention at a level of about 1 to 40 mg/kg 15 minutes prior to challenge or orally at the same dose 30 minutes prior to challenge were aerosol challenged with either water or ovalbumim at a concentration of 10 mg per ml. The animals were placed under an inverted dessicator jar (18×14 cm) with a constant flow of air coming into the chamber from a compressed-air source to prevent hypoxia. Air flow leaving the chamber and fluctuations due to respiration were monitored through a separate outlet with a Fleisch No. 0000 pneumotachograph (available from Beckman Instruments, Inc., Schiller Park, Ill.) coupled to a Beckman Type R dynograph (available from Beckman Instruments, Inc.). Aerosolization through a third outlet was made via a No. 4 DeVilbiss nebulizer (available from the DeVilbiss Company, Somerset, PA) for 90 seconds at 150 mm Hg. […]

[2] = test system: leukotriene synthesis in homogenized rat basophil leukemia cells; assay: cell free leukotriene biosynthesis system (homogenized rat basophil leukemia cells, radioimmunoassay); format: biochemical; conditions: synthesis initiated by arachidonate; drug preincubated five minutes; read-out: IC50, leukotriene synthesis inhibition
Procedure: This test utilizes the cell free leukotriene biosynthesis system of M. Steinhoff et al. Biochim. Acta. 68, 28 (1980), incorporated herein by reference, which consists of homogenized rat basophil leukemia cells. Leukotriene synthesis is initiated by the addition of arachidonate. Solutions are centrifuged and supernatants assayed using a radioimmunoassay developed as described by Aeringhaus et al. FEBS Letter 146, 111-114. Drugs are dissolved in ethanol or dimethyl sulfoxide and then preincubated for five minutes. Phenidone is used as a positive control.

IC50 [2]: 15 µM
SMILES: CC(C)(C)c1cc(C(=O)c2ccc(C(=O)O)s2)cc(C(C)(C)C)c1O [5-(3',5'-di-t-butyl-4'-hydroxybenzoyl)thiophene-2-carboxylic acid]
ED40 ([1]; ip, 0.25 h, administered intraperitoneally 15 minutes prior to ovalbumin aerosol challenge): < 10 mg/kg
ED40 ([1]; po, 0.5 h, administered orally 30 minutes prior to ovalbumin aerosol challenge): < 25 mg/kg
